Reference: patent US11028090B2 (Dong Wha Pharm. Co., Ltd., priority 2017, dated 2021)
Read-outs that look alike come from different tables or passages of the source.

Molecular target: BRD4 (BD1+BD2) bromodomain (Homo sapiens (Human), UniProt O60885)
Assay: BRD4 binding inhibition (AlphaScreen, GST-BRD4 vs tetraacetylated histone H4 peptide)
Description: A mixture comprising 100 nM GST-BRD4 (BD1+BD2) and 100 nM biotinylated acetyl-histone H4 (Lys5,8,12,16) peptide was prepared in assay buffer (50 mM HEPES pH 7.4; 25 mM NaCl; 0.05% Tween 20; 0.1% bovine serum albumin (BSA); 10 mM dithiothreitol (DTT)). After adding 6 μl of the mixture to the diluent, 6 μl of the pre-mixed AlphaLISA Glutathione Acceptor Beads and AlphaScreen Streptavidin Donor Beads (PerkinElmer, 10 μg/ml in assay buffer, respectively) was added thereto. The samples were incubated in the dark at room temperature for 30 minutes (shaking at 300 rpm). Then, the signals were measured with PerkinElmer Envision HTS Multilabel Reader using an alpha screen protocol of PerkinElmer. Each plate contained the negative control in which biotinylated acetyl-histone H4 peptide and GST-BRD4 (BD1+BD2) were replaced by assay buffer. In the case of using the software GraphPad Prism for calculation, the negative control point was input as a low standard value. The positive control (probe molecule l-BET762 containing protein/peptide mixture) proceeded to pipetting.

[1] = GST-BRD4 (BD1+BD2) vs biotinylated acetyl-histone H4 peptide, AlphaScreen, read-out: BRD4 IC50
[2] = GST-BRD4 (BD1+BD2) / biotinylated acetyl-histone H4 (Lys5,8,12,16) peptide, read-out: IC50, BRD4 binding inhibition

Question: How did the IC50 [1] turn out when `COc1cc2c(nc(NCCCCNC(=O)CC(C)C)c3nnc(C)n32)c(OC)c1OC` [Example 195, 3-methyl-N-[4-(6,7,8-trimethoxy-1-methyl-[1,2,4]triazolo[4,3-a]quinoxaline-4-ylamino)-butyl]-butyramide] was run?
Answer: Its IC50 is 69 nM.

Question: `Cc1nnc2c(NCCCCNC(=O)OC(C)(C)C)nc3cc(C(=O)O)ccc3n12` [Example 200, 4-[(4-tert-butoxycarbamoylamino)-butylamino]-1-methyl-[1,2,4]triazolo[4,3-a]quinoxaline-7-carboxylic acid] was tested. Which IC50 [1] did it give?
Answer: Its IC50 is 71 nM.

Question: Which IC50 [2] does the source give for `Cc1nnc2c(NCCCCNC(=O)CC(C)C)nc3cc(C(=O)O)ccc3n12` [Example 201, 1-methyl-4-[4-(3-methyl-butyrylamino)-butylamino]-[1,2,4]triazolo[4,3-a]quinoxaline-7-carboxylic acid] here?
Answer: Its IC50 is no more than 50 nM.

Question: What about the IC50 [1] of the same molecule?
Answer: Its IC50 is 26 nM.

Question: For `Cc1nnc2c(NCCCCNC(=O)OC(C)(C)C)nc3cc(C(=O)NC(C)(C)C)ccc3n12` [Example 203, [4-(7-tert--butylcarbamoyl-1-methyl-[1,2,4]triazolo[4,3-a]quinoxaline-4-ylamino)-butyl]-carbamic acid-tert-butylester], which IC50 [2] is on record?
Answer: The IC50 was no more than 50 nM.

Question: What about the IC50 [1] of the same molecule?
Answer: The IC50 was 42 nM.

Question: Which IC50 [2] does the source give for `Cc1nnc2c(NCCCCNC(=O)OC(C)(C)C)nc3cc(C(=O)NCc4ccc(Cl)cc4)ccc3n12` [Example 211, {4-[7-(4-chloro-benzylcarbamoyl)-1-methyl-[1,2,4]triazolo[4,3-a]quinoxaline-4-ylamino]-butyl}-carbamic acid-tert-butylester] here?
Answer: Its IC50 is no more than 50 nM.

Question: What about the IC50 [1] of the same molecule?
Answer: The IC50 was 34 nM.

Question: For `Cc1nnc2c(NCCCCN)nc3cc(-c4nc5ccccc5n4C)ccc3n12` [Example 221, N^1-[1-methyl-7-(1-methyl-1H-benzoimidazole-2-yl)-[1,2,4]triazolo[4,3-a]quinoxaline-4-yl]-butane-1,4-diamine ditrifluoroacetic acid], which IC50 [1] is on record?
Answer: The IC50 was 62 nM.

Question: What does the source list for `CC(=O)OC(C)(C)C(=O)NCCCCNc1nc2cc(-c3nc4ccccc4n3C)ccc2n2c(C)nnc12` [Example 231, acetic acid-1-{4-[7-(1-methyl-1H-benzoimidazole-2-yl)-1-methyl-[1,2,4]triazolo[4,3-a]quinoxaline-4-ylamino]-butylcarbamoyl}-1-methyl-ethylester]?
Answer: IC50 [2]: ≤ 50 nM; IC50 [1]: 14 nM

Question: What does the source list for `Cc1nnc2c(NCCCCNC(=O)C(C)(C)O)nc3cc(-c4nc5ccccc5n4C)ccc3n12` [Example 232, 2-hydroxy-N-{4-(7-(1-methyl-1H-benzoimidazole-2-yl)-1-methyl-[1,2,4]triazolo[4,3-a]quinoxaline-4-ylamino)-butyl}-2-methyl-propionamide]?
Answer: IC50 [2]: ≤ 50 nM; IC50 [1]: 33 nM

Question: Which IC50 [2] does the source give for `COCCn1c(-c2ccc3c(c2)nc(NCCCCNC(=O)CC(C)C)c2nnc(C)n23)nc2ccccc21` [Example 241, N-(4-{7-[1-(2-methoxy-ethyl)-1H-benzoimidazole-2-yl]-1-methyl-[1,2,4]triazolo[4,3-a]quinoxaline-4-ylamino}-butyl)-3-methyl-butyramide] here?
Answer: Its IC50 is no more than 10 nM.

Question: And the IC50 [1]?
Answer: Its IC50 is 7 nM.

Question: How did the IC50 [1] turn out when `Cc1nnc2c(NCCCCNC(=O)OC(C)(C)C)nc3cc(N)ccc3n12` [Example 243, [4-(7-amino-1-methyl-[1,2,4]triazolo[4,3-a]quinoxaline-4-ylamino)-butyl]-carbamic acid-tert-butylester] was run?
Answer: The IC50 was 65 nM.

Question: How did the IC50 [1] turn out when `Cc1nnc2c(NCCCCNC(=O)OC(C)(C)C)nc3cc(C(=O)c4ccccc4)ccc3n12` [Example 260, [4-(7-benzoyl-1-methyl-[1,2,4]triazolo[4,3-a]quinoxaline-4-ylamino)-butyl]-carbamic acid-tert-butylester] was run?
Answer: Its IC50 is 62 nM.

Question: With `COc1ccc(C(=O)c2ccc3c(c2)nc(NCCCCNC(=O)OC(C)(C)C)c2nnc(C)n23)cc1` [Example 262, {4-[7-(4-methoxy-benzoyl)-1-methyl-[1,2,4]triazolo[4,3-a]quinoxaline-4-ylamino]-butyl}-carbamic acid-tert-butylester] as the molecule, how does the IC50 [1] read?
Answer: The IC50 was 72 nM.
